From patent publication US8263762B2, “Alkoxy-carbonyl-amino-alkynyl-adenosine compounds and derivatives thereof as A2AR agonists” (Dogwood Pharmaceuticals, Inc., priority 2009, dated 2012)

Assays:
[1] = tested on: human neutrophils; assay: Neutrophil oxidative activity (luminol enhanced chemiluminescence); format: cell-based; conditions: oxidative activity assay, purified human neutrophils, fMLP-stimulated chemiluminescence, read-out: Functional Activity
Description: Chemiluminescence Methods: Luminol enhanced chemiluminescence, a measure of neutrophil oxidative activity, is dependent upon both superoxide production and mobilization of the granule enzyme myeloperoxidase. The light is emitted from unstable high-energy oxygen species such as hypochlorous acid and singlet oxygen generated by activated neutrophils.
Purified human neutrophils (2×10^6/ml) suspended in Hanks balanced salt solution containing 0.1% human serum albumin (HA), adenosine deaminase (1 U/mL) and rolipram (100 nM) were incubated (37 C) in a water bath for 15 min with or without rhTNF (10 U/ml). Following incubation 100 µL aliquots of the PMN were transferred to wells (White walled clear bottom 96 well tissue culture plates Costar #3670; 2 wells/condition) containing […] and luminol (final concentration […]) with or without adenosine agonist (final agonist concentrations 0.01-1000 nM). The plate was incubated 5 min (37 C) and then fMLP (50 l in HA; final concentration […]) was added to all wells.
Peak chemiluminescence was determined with a Victor 1420 Multilabel Counter in the chemiluminescence mode using the Wallac Workstation software. Data are presented as peak chemiluminescence as percent of activity in the absence of an adenosine agonist. The EC50 was determined using PRISM software. All compounds were tested with PMNs from three separate donors.
Effect of A2A Agonists on Neutrophil Oxidative Activity: f-met-leu-phe (fMLP), luminol, superoxide dismutase, cytochrome C, fibrinogen, adenosine deaminase, and trypan blue were obtained from Sigma Chemical. Ficoll-hypaque was purchased from ICN (Aurora, Ohio), and Cardinal Scientific (Santa Fe, N. Mex.) and Accurate Chemicals and Scientific (Westerbury, N.Y.). Endotoxin (lipopolysaccharide; E. coli K235) was from List Biologicals (Campbell, Calif.). Hanks balanced salt solution (HBSS), and limulus amebocyte lysate assay kit were from BioWittaker (Walkersville, Md.). Human serum albumin (HSA) was from Cutter Biological (Elkhart, Ind.). Recombinant human tumor necrosis factor-α was supplied by Dianippon Pharmaceutical Co. Ltd. (Osaka, Japan). ZM241385 (4-(2-[7-amino-2-(2-furyl)[1,2,4]triazolo[2,3-a][1,3,5]triazin-5-yl amino]ethyl)phenol) was a gift from Simon Poucher, Zeneca Pharmaceuticals, Cheshire, UK. Stock solutions (1 mM and 10 mM in DMSO) were made and stored at −20° C.
Human neutrophil preparation: Purified neutrophils (98% neutrophils and >95% viable by trypan blue exclusion) containing <1 platelet per 5 neutrophils and <50 pg/ml endotoxin (limulus amebocyte lysate assay) were obtained from normal heparinized (10 U/ml) venous blood by a one step Ficoll-hypaque separation procedure (A. Ferrante et al., J. Immunol. Meth., 36, 109 (1980)). […]

[2] = target: T1, recombinant human A2A receptors (Homo sapiens, UniProt P29274); assay: Radioligand binding assay, A2A receptor; conditions: recombinant human A2A receptors in Sf9 cell membranes; competition binding
T1 construct: made in house; host or cells: Sf9 insect cells, viral (baculovirus) infection; membranes
Experimental: Cell culture and membrane preparation. Sf9 cells were cultured in Grace's medium supplemented with 10% fetal bovine serum, 2.5 μg/ml amphotericin B and 50 μg/ml gentamycin in an atmosphere of 50% N2/50% O2. Viral infection was performed at a density of 2.5×10^6 cells/mL with a multiplicity of infection of two for each virus used. Infected cells were harvested 3 days post-infection and washed twice in insect PBS (PBS pH 6.3). Cells were then resuspended in lysis buffer (20 mM HEPES pH 7.5, 150 mM NaCl, 3 mM MgCl2, 1 mM β-mercaptoethanol (BME), 5 μg/mL leupeptin, 5 μg/mL pepstatin A, 1 μg/mL aprotinin, and 0.1 mM PMSF) and snap frozen for storage at −80° C. Cells were thawed on ice, brought to 30 mL total volume in lysis buffer, and burst by N2 cavitation (600 psi for 20 minutes). A low-speed centrifugation was performed to remove any unlysed cells (1000×g for 10 minutes), followed by a high-speed centrifugation (17,000×g for 30 minutes). The pellet from the final centrifugation was homogenized in buffer containing 20 mM HEPES pH 8, 100 mM NaCl, 1% glycerol, 2 μg/mL leupeptin, 2 μg/mL pepstatin A, 2 μg/mL Aprotinin, 0.1 mM PMSF, and 10 μM GDP using a small glass homogenizer followed by passage through a 26 gauge needle. Membranes were aliquoted, snap frozen in liquid N2, and stored at −80° C. Membranes from cells stably expressing the human A1 AR(CHO K1 cells) or A3 AR (HEK 293 cells) were prepared as described (Robeva et al., 1996).
Radioligand Binding Assays. Radioligand binding to recombinant human A2A receptors in Sf9 cell membranes was performed using either the radiolabeled agonist, ^125I-APE (Luthin et al., 1995) or the radiolabeled antagonist, ^125I-ZM241385 (^125I-ZM). To detect the high affinity, GTPγS-sensitive state of A1 and A3 AR, we used the agonist, ^125I-ABA (Linden et al., 1985; Linden et al., 1993). Binding experiments were performed in triplicate with 5 μg (A2A) or 25 μg (A1 and A3) membrane protein in a total volume of 0.1 mL HE buffer (20 mM HEPES and 1 mM EDTA) withl U/mL adenosine deaminase and 5 mM MgCl2 with or without 50 μM GTPγS. Membranes were incubated with radioligands at room temperature for three hours (for agonists) or two hours (for antagonists) in Millipore Multiscreen® 96-well GF/C filter plates and assays were terminated by rapid filtration on a cell harvester (Brandel, Gaithersburg, Md.) followed by 4×150 μL washes over 30 seconds with ice cold 10 mM Tris-HCl, pH 7.4, 10 mM MgCl2. Nonspecific binding was measured in the presence of 50 μM NECA. Competition binding assays were performed as described (Robeva et al., 1996) using 0.5-1 nM ^125I-APE, ^125I-ZM241385, or ^125I-ABA. Sometimes it is important to change pipette tips following each serial dilution to prevent transfer on tips of potent hydrophobic compounds. The Ki values for competing compound binding to a single site were derived from IC50 values with correction for radioligand and competing compound depletion as described previously (Linden, 1982). • Linden J (1982) Calculating the Dissociation Constant of an Unlabeled Compound From the Concentration Required to Displace Radiolabel Binding by 50%. J Cycl Nucl Res 8: 163-172. • Linden J, Patel A and Sadek S (1985) [^125I]Aminobenzyladenosine, a New Radioligand With Improved Specific Binding to Adenosine Receptors in Heart. Circ Res 56: 279-284. • Linden J, Taylor H E, Robeva A S, Tucker A L, Stehle J H, Rivkees S A, Fink J S and Reppert S M (1993) Molecular Cloning and Functional Expression of a Sheep A3 Adenosine Receptor with Widespread Tissue Distribution. Mol Pharmacol 44: 524-532. • Luthin D R, Olsson R A, Thompson R D, Sawmiller D R and Linden J (1995) Characterization of Two Affinity States of Adenosine A2A Receptors With a New Radioligand, 2-[2-(4-Amino-3-[^125I]Iodophenyl)Ethylamino] Adenosine. Mol Pharmacol 47: 307-313. • Robeva A S, Woodard R, Luthin D R, Taylor H E and Linden J (1996) Double Tagging Recombinant A1- and A2A-Adenosine Receptors With Hexahistidine and the FLAG Epitope. […]

T1 sequence (P29274 whole entry): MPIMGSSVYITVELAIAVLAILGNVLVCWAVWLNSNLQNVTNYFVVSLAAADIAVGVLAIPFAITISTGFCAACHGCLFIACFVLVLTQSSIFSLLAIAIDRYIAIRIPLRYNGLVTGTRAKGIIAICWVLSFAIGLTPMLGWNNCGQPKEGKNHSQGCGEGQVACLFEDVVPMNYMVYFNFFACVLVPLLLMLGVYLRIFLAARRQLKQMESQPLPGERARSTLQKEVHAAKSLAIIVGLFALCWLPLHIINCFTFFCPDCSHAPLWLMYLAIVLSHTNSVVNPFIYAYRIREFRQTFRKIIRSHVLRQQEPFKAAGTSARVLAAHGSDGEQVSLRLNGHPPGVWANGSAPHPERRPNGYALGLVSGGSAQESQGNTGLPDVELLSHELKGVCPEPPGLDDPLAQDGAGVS

Structure (SMILES) | EC50 [1] | Ki [2]
COC(=O)N(C)CC#Cc1nc(N)c2ncn([C@@H]3O[C@H](C(=O)NC4CC4)C(O)C3O)c2n1 (some centres unmarked) [Example 1, N-Cyclopropyl 2-{3-[methoxycarbonyl(methyl)amino]propyn-1-yl}adenosine-5′-uronamide] | < 0.01 µM | < 0.01 µM
CN(CC#Cc1nc(N)c2ncn([C@@H]3O[C@H](C(=O)NC4CC4)C(O)C3O)c2n1)C(=O)Oc1ccccc1 (some centres unmarked) [Example 2, N-Cyclopropyl 2-{3-[phenoxycarbonyl(methyl)amino]propyn-1-yl}adenosine-5′-uronamide] | < 0.01 µM | < 0.01 µM
CN(CC#Cc1nc(N)c2ncn([C@@H]3O[C@H](C(=O)NC4CC4)C(O)C3O)c2n1)C(=O)OCCOCc1ccccc1 (some centres unmarked) [Example 3, N-Cyclopropyl 2-{3-[2-((benzyloxy)ethoxycarbonyl)(methyl)amino]propyn-1-yl}adenosine-5′-uronamide] | < 0.01 µM | < 0.01 µM
CN(CC#Cc1nc(N)c2ncn([C@@H]3O[C@H](C(=O)NC4CC4)C(O)C3O)c2n1)C(=O)Oc1ccc(F)cc1 (some centres unmarked) [Example 4, N-Cyclopropyl 2-{3-[4-fluorophenoxycarbonyl(methyl)amino]propyn-1-yl}adenosine-5′-uronamide] | < 0.01 µM | 0.011 to 0.1 µM
CCN(CC#Cc1nc(N)c2ncn([C@@H]3O[C@H](C(=O)NC4CC4)C(O)C3O)c2n1)C(=O)OC (some centres unmarked) [Example 6, N-Cyclopropyl 2-{3-[4-(ethyl(methoxycarbonyl)amino)]propyn-1-yl}adenosine-5′-uronamide] | < 0.01 µM | < 0.01 µM
CCCN(CC#Cc1nc(N)c2ncn([C@@H]3O[C@H](C(=O)NC4CC4)C(O)C3O)c2n1)C(=O)OC (some centres unmarked) [Example 7, N-Cyclopropyl 2-{3-[4-(methoxycarbonyl(propyl)amino)]propyn-1-yl}adenosine-5′-uronamide] | < 0.01 µM | < 0.01 µM
COC(=O)N(CC#Cc1nc(N)c2ncn([C@@H]3O[C@H](C(=O)NC4CC4)C(O)C3O)c2n1)C(C)C (some centres unmarked) [Example 8, N-Cyclopropyl 2-{3-[4-(isopropyl(methoxycarbonyl)amino)]propyn-1-yl}adenosine-5′-uronamide] | < 0.01 µM | < 0.01 µM
COC(=O)N(CC#Cc1nc(N)c2ncn([C@@H]3O[C@H](C(=O)NC4CC4)C(O)C3O)c2n1)CC(C)C (some centres unmarked) [Example 9, N-Cyclopropyl 2-{3-[4-(isobutyl(methoxycarbonyl)amino)]propyn-1-yl}adenosine-5′-uronamide] | < 0.01 µM | < 0.01 µM
COC(=O)N(CC#Cc1nc(N)c2ncn([C@@H]3O[C@H](C(=O)NC4CC4)C(O)C3O)c2n1)Cc1ccccc1 (some centres unmarked) [Example 10, N-Cyclopropyl 2-{3-[4-(benzyl(methoxycarbonyl)amino)]propyn-1-yl}adenosine-5′-uronamide] | > 0.1 µM | 0.011 to 0.1 µM
COC(=O)N(CC#Cc1nc(N)c2ncn([C@@H]3O[C@H](C(=O)NC4CC4)C(O)C3O)c2n1)C1CC1 (some centres unmarked) [Example 11, N-Cyclopropyl 2-{3-[4-(cyclopropyl(methoxycarbonyl)amino)]propyn-1-yl}adenosine-5′-uronamide] | < 0.01 µM | < 0.01 µM
COC(=O)N(CC#Cc1nc(N)c2ncn([C@@H]3O[C@H](C(=O)NC4CC4)C(O)C3O)c2n1)CC1CC1 (some centres unmarked) [Example 12, N-Cyclopropyl 2-{3-[4-(cyclopropylmethyl(methoxycarbonyl)amino)]propyn-1-yl}adenosine-5′-uronamide] | < 0.01 µM | < 0.01 µM
COC(=O)N(CC#Cc1nc(N)c2ncn([C@@H]3O[C@H](C(=O)NC4CC4)C(O)C3O)c2n1)C1CCC1 (some centres unmarked) [Example 13, N-Cyclopropyl 2-{3-[4-(cyclobutyl(methoxycarbonyl)amino)]propyn-1-yl}adenosine-5′-uronamide] | < 0.01 µM | 0.011 to 0.1 µM
COC(=O)N(CC#Cc1nc(N)c2ncn([C@@H]3O[C@H](C(=O)NC4CC4)C(O)C3O)c2n1)C1CCCC1 (some centres unmarked) [Example 14, N-Cyclopropyl 2-{3-[4-(cyclopentyl(methoxycarbonyl)amino)]propyn-1-yl}adenosine-5′-uronamide] | < 0.01 µM | < 0.01 µM
COCCN(CC#Cc1nc(N)c2ncn([C@@H]3O[C@H](C(=O)NC4CC4)C(O)C3O)c2n1)C(=O)OC (some centres unmarked) [Example 15, N-Cyclopropyl 2-{3-[4-(methoxycarbonyl(2-methoxyethyl)amino)]propyn-1-yl}adenosine-5′-uronamide] | < 0.01 µM | < 0.01 µM
COCCCN(CC#Cc1nc(N)c2ncn([C@@H]3O[C@H](C(=O)NC4CC4)C(O)C3O)c2n1)C(=O)OC (some centres unmarked) [Example 16, N-Cyclopropyl 2-{3-[4-(methoxycarbonyl(3-methoxypropyl)amino)]propyn-1-yl}adenosine-5′-uronamide] | < 0.01 µM | 0.011 to 0.1 µM
CCOCCCN(CC#Cc1nc(N)c2ncn([C@@H]3O[C@H](C(=O)NC4CC4)C(O)C3O)c2n1)C(=O)OC (some centres unmarked) [Example 17, N-Cyclopropyl 2-{3-[4-((3-ethoxypropyl)(methoxycarbonyl)amino)]propyn-1-yl}adenosine-5′-uronamide] | > 0.1 µM | 0.011 to 0.1 µM
